Assay [1] in a line: Expert sensory testing of racemic menthol vs (−)-menthol in toothpaste (CREST Cavity) with standard spearmint flavor. The format is in vivo. The method, then: In separate, unpublished internal experiments, perceptual experiences of racemic menthol are quantified via expert sensory testing. The use of a standard spearmint flavor (minimizing extra menthol contribution) compared racemic menthol to (−)-menthol in a toothpaste formulation (CREST Cavity). There are several sensory observations taken from these experiments. […] These aromatic notes appear during brushing and disappear after 5-10 minutes post expectoration and are more pronounced as concentrations increase.

Assay [2] can be described thus: Comparison of cooling attributes of (−)-menthol and racemic menthol in a toothpaste (CREST Cavity formulation). The format is in vivo. The text has this:
The following data helps support the use of racemic menthol to reduce costs of mint flavor compositions herein described. From internal unpublished research, Table B compares replacing (−)-menthol with a racemic menthol in a 1:1 in a toothpaste formulation. Such a direct replacement is not preferred given the reduced cooling profile and olfactory differences; however, a portion of L-menthol is preferably replaced by racemic-menthol to gain cost efficiency while minimizing impact to the overall mint flavor profiles.
Table B is a comparison of attributes between (—)-menthol and racemic menthol in a toothpaste context (using CREST Cavity formulation).

The results in this text go back to US20220015402A1, “Mint Flavor Compositions” (The Procter & Gamble Company, priority 2020, published 2022).

As to `CC1CCC(C(C)C)C(O)C1` (racemic) [Racemic Menthol, racemic menthol], in assay [1], the “less potent than (−)-menthol for cooling” value is on record as 25-30%. Also, in assay [2], the “Potency compared to L-Menthol” value was ~0.65-0.7x and the “Time Point at Maximum Cooling” value was approximately 1 min. In addition, the “Maximum Cooling (0-60 scale)” value in assay [2] (60 = greatest amount of cooling, 0 = least) is 35. Further, the “Maximum Longevity” value in assay [2] (cooling) is “Up to 20 minutes”.
